From patent US20070082880A1 (priority 2005, published 2007)

These compounds were tested against T1, human PKCθ full length enzyme (Homo sapiens, UniProt Q04759) (assay: PKCθ IMAP Assay). Conditions: average value when one or more samples were tested; ATP 6 uM, PKCθ 1 nM.
T1 construct: human PKCθ full length enzyme (Panvera Catalog No. P2996); purchased Panvera P2996
T1 sequence (Q04759 whole entry): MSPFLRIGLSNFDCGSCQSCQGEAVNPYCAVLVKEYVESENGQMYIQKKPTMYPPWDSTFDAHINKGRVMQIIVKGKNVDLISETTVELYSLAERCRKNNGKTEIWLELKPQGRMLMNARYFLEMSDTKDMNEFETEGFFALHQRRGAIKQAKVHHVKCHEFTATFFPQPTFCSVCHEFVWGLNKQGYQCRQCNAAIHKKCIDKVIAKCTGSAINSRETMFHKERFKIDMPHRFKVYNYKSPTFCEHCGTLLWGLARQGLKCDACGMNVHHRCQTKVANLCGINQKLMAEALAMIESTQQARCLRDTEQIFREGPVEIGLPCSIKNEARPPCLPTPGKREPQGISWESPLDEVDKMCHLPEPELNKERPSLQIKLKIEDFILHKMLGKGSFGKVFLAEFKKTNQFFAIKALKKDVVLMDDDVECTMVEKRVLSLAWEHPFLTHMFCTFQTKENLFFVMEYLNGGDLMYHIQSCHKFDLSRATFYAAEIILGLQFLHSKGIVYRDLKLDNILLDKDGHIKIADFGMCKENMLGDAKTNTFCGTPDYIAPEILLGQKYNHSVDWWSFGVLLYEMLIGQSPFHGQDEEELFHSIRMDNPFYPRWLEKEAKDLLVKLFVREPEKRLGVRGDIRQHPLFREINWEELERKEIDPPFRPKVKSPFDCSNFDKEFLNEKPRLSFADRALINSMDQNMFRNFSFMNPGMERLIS
Format: biochemical
Summary of the method: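 IMAP fluorescence polarization after 20 min with binding beads measured phosphorylation of 100 nM 5FAM-peptide. Reactions held 1 nM full-length human PKCθ, 6 uM ATP, 5% DMSO and DTT-containing buffer, 25 min at room temperature. Compounds tested as 2:1 serial dilutions; controls lacked ATP or enzyme.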
An IC50 of 58 nM was found for `Cc1c(Nc2c(C#N)cnc3sc(-c4cccc(C(=O)N5CCCC5)c4)cc23)ccc2[nH]ccc12` [Compound 423, 4-[(4-methyl-1H-indol-5-yl)amino]-2-[3-(pyrrolidin-1-ylcarbonyl)phenyl]thieno[2,3-b]pyridine-5-carbonitrile] in this work.
An IC50 of 194 nM was found for `Cc1c(Nc2c(C#N)cnc3sc(-c4ccccc4)c(C)c23)ccc2[nH]ccc12` [Compound 424, 3-methyl-4-[(4-methyl-1H-indol-5-yl)amino]-2-phenylthieno[2,3-b]pyridine-5-carbonitrile] in this work.
An IC50 of 95 nM was found for `Cc1c(Nc2c(C#N)cnc3sc(/C=C/c4ccccc4)c(C)c23)ccc2[nH]ccc12` [Compound 425, 3-methyl-4-[(4-methyl-1H-indol-5-yl)amino]-2-[(E)-2-phenylvinyl]thieno[2,3-b]pyridine-5-carbonitrile] in this work.
An IC50 of 119 nM was found for `Cc1c(Nc2c(C#N)cnc3sc(-c4cccc(NS(C)(=O)=O)c4)c(C)c23)ccc2[nH]ccc12` [Compound 426, N-(3-{5-cyano-3-methyl-4-[(4-methyl-1H-indol-5-yl)amino]thieno[2,3-b]pyridin-2-yl}phenyl)methanesulfonamide] in this work.
An IC50 of 34 nM was found for `Cc1c(Nc2c(C#N)cnc3sc(-c4cccc(S(N)(=O)=O)c4)c(C)c23)ccc2[nH]ccc12` [Compound 427, 3-{5-cyano-3-methyl-4-[(4-methyl-1H-indol-5-yl)amino]thieno[2,3-b]pyridin-2-yl}benzenesulfonamide] in this work.
An IC50 of 60 nM was found for `CNS(=O)(=O)c1cccc(-c2sc3ncc(C#N)c(Nc4ccc5[nH]ccc5c4C)c3c2C)c1` [Compound 428, 3-{5-cyano-3-methyl-4-[(4-methyl-1H-indol-5-yl)amino]thieno[2,3-b]pyridin-2-yl}-N-methylbenzenesulfonamide] in this work.
An IC50 of 60 nM was found for `Cc1c(Nc2c(C#N)cnc3sc(-c4cccc(C(=O)NCCN(C)C)c4)c(C)c23)ccc2[nH]ccc12` [Compound 429, 3-{5-cyano-3-methyl-4-[(4-methyl-1H-indol-5-yl)amino]thieno[2,3-b]pyridin-2-yl}-N-[2-(dimethylamino)ethyl]benzamide] in this work.
An IC50 of 116 nM was found for `Cc1c(Nc2c(C#N)cnc3sc(-c4ccc(C(=O)NCCN(C)C)cc4)c(C)c23)ccc2[nH]ccc12` [Compound 430, 4-{5-cyano-3-methyl-4-[(4-methyl-1H-indol-5-yl)amino]thieno[2,3-b]pyridin-2-yl}-N-[2-(dimethylamino)ethyl]benzamide] in this work.
An IC50 of 110 nM was found for `Cc1c(Nc2c(C#N)cnc3sc(-c4ccc(S(=O)(=O)NCCO)cc4)c(C)c23)ccc2[nH]ccc12` [Compound 431, 4-{5-cyano-3-methyl-4-[(4-methyl-1H-indol-5-yl)amino]thieno[2,3-b]pyridin-2-yl}-N-(2-hydroxyethyl)benzenesulfonamide] in this work.
An IC50 of 49 nM was found for `Cc1c(Nc2c(C#N)cnc3sc(-c4nccn4C)cc23)ccc2[nH]ccc12` [Compound 432, 2-(1-methyl-1H-imidazol-2-yl)-4-[(4-methyl-1H-indol-5-yl)amino]thieno[2,3-b]pyridine-5-carbonitrile] in this work.
An IC50 of 527 nM was found for `Cn1ccnc1-c1cc2c(Nc3ccc4[nH]ccc4c3)c(C#N)cnc2s1` [Compound 433, 4-(1H-indol-5-ylamino)-2-(1-methyl-1H-imidazol-2-yl)thieno[2,3-b]pyridine-5-carbonitrile] in this work.
An IC50 of 70 nM was found for `Cc1c(Nc2c(C#N)cnc3sc(-c4cc5ccccc5[nH]4)cc23)ccc2[nH]ccc12` [Compound 434, 2-(1H-indol-2-yl)-4-[(4-methyl-1H-indol-5-yl)amino]thieno[2,3-b]pyridine-5-carbonitrile] in this work.
An IC50 of 282 nM was found for `CC(=O)Nc1ccccc1-c1cc2c(Nc3ccc4[nH]ccc4c3C)c(C#N)cnc2s1` [Compound 435, N-(2-{5-cyano-4-[(4-methyl-1H-indol-5-yl)amino]thieno[2,3-b]pyridin-2-yl}phenyl)acetamide] in this work.
An IC50 of 215 nM was found for `Cc1c(Nc2c(C#N)cnc3sc(-c4ccccc4N)cc23)ccc2[nH]ccc12` [Compound 436, 2-(2-aminophenyl)-4-[(4-methyl-1H-indol-5-yl)amino]thieno[2,3-b]pyridine-5-carbonitrile] in this work.
An IC50 of 11 nM was found for `Cc1c(Nc2c(C#N)cnc3sc(-c4cccc(O)c4)cc23)ccc2[nH]ccc12` [Compound 437, 2-(3-hydroxyphenyl)-4-[(4-methyl-1H-indol-5-yl)amino]thieno[2,3-b]pyridine-5-carbonitrile] in this work.
An IC50 of 14 nM was found for `Cc1c(Nc2c(C#N)cnc3sc(-c4cccnc4)cc23)ccc2[nH]ccc12` [Compound 438, 4-[(4-methyl-1H-indol-5-yl)amino]-2-pyridin-3-ylthieno[2,3-b]pyridine-5-carbonitrile] in this work.
An IC50 of 13 nM was found for `Cc1c(Nc2c(C#N)cnc3sc(-c4ccncc4)cc23)ccc2[nH]ccc12` [Compound 439, 4-[(4-methyl-1H-indol-5-yl)amino]-2-pyridin-4-ylthieno[2,3-b]pyridine-5-carbonitrile] in this work.
An IC50 of 16 nM was found for `Cc1c(Nc2c(C#N)cnc3sc(-c4ccccn4)cc23)ccc2[nH]ccc12` [Compound 440, 4-[(4-methyl-1H-indol-5-yl)amino]-2-pyridin-2-ylthieno[2,3-b]pyridine-5-carbonitrile] in this work.
An IC50 of 29 nM was found for `Cc1c(Nc2c(C#N)cnc3sc(-c4ccc(O)cc4)cc23)ccc2[nH]ccc12` [Compound 441, 2-(4-hydroxyphenyl)-4-[(4-methyl-1H-indol-5-yl)amino]thieno[2,3-b]pyridine-5-carbonitrile] in this work.
An IC50 of 273 nM was found for `Cc1c(Nc2c(C#N)cnc3sc(-c4ccccc4O)cc23)ccc2[nH]ccc12` [Compound 442, 2-(2-hydroxyphenyl)-4-[(4-methyl-1H-indol-5-yl)amino]thieno[2,3-b]pyridine-5-carbonitrile] in this work.
An IC50 of 126 nM was found for `Cc1c(Nc2c(C#N)cnc3sc(C#CCCN4CCN(C)CC4)cc23)ccc2[nH]ccc12` [Compound 450, 4-[(4-methyl-1H-indol-5-yl)amino]-2-[4-(4-methylpiperazin-1-yl)but-1-yn-1-yl]thieno[2,3-b]pyridine-5-carbonitrile] in this work.
An IC50 of 8 nM was found for `Cc1cc(CN(C)C)cc(-c2cc3c(Nc4ccc5[nH]ccc5c4C)c(C#N)cnc3s2)c1` [Compound 454, 2-{3-[(dimethylamino)methyl]-5-methylphenyl}-4-[(4-methyl-1H-indol-5-yl)amino]thieno[2,3-b]pyridine-5-carbonitrile] in this work.
An IC50 of 29 nM was found for `CCCOc1c(CN(C)C)cc(C)cc1-c1cc2c(Nc3ccc4[nH]ccc4c3C)c(C#N)cnc2s1` [Compound 455, 2-{3-[(dimethylamino)methyl]-5-methyl-2-propoxyphenyl}-4-[(4-methyl-1H-indol-5-yl)amino]thieno[2,3-b]pyridine-5-carbonitrile] in this work.
An IC50 of 318 nM was found for `COc1ccc(-c2cc3c(Nc4ccc5[nH]ccc5c4)c(C#N)cnc3s2)cc1CN(C)C` [Compound 456, 2-{3-[(dimethylamino)methyl]-4-methoxyphenyl}-4-(1H-indol-5-ylamino)thieno[2,3-b]pyridine-5-carbonitrile] in this work.
An IC50 of 5 nM was found for `COc1ccc(CN(C)C)cc1-c1cc2c(Nc3ccc4[nH]ccc4c3C)c(C#N)cnc2s1` [Compound 457, 2-{5-[(dimethylamino)methyl]-2-methoxyphenyl}-4-[(4-methyl-1H-indol-5-yl)amino]thieno[2,3-b]pyridine-5-carbonitrile] in this work.
An IC50 of 99 nM was found for `Cc1c(Nc2c(C#N)cnc3sc(-c4cccc(CN(C)C)c4)c(C)c23)ccc2[nH]ccc12` [Compound 458, 2-{3-[(dimethylamino)methyl]phenyl}-3-methyl-4-[(4-methyl-1H-indol-5-yl)amino]thieno[2,3-b]pyridine-5-carbonitrile] in this work.
